Among the data in patent US11180504B2 (ORCHID PHARMA LTD., priority 2016, dated 2021) are MIC values, retold here.

SMILES strings stand for the structures. Values after ≈ are worked out from the molar mass of the structure shown. Read-outs that look alike come from different tables or passages of the source.

Assay [1] deals with carbapenem sensitive Pseudomonas aeruginosa. Briefly: MIC by broth micro-dilution (CLSI), carbapenem sensitive P. aeruginosa. Type of assay: cell-based. Particulars: Pseudomonas aeruginosa, ATCC27853, Meropenem susceptible P. aeruginosa ATCC27853; read-out: MIC. For orientation: Broth dilution looks for growth in wells or tubes with falling amounts of substance.
Assay [2] has as its system methicillin-sensitive Staphylococcus aureus. Briefly: MIC by broth micro-dilution (CLSI), methicillin-sensitive S. aureus. The assay is classed as cell-based. Particulars: Staphylococcus aureus, ATCC 29213 / MSSA, MSSA S. aureus ATCC29213; read-out: MIC.
For assay [3], the system named is carbapenem sensitive Escherichia coli. Briefly: MIC by broth micro-dilution (CLSI), carbapenem sensitive E. coli. Type of assay: cell-based. Particulars: Escherichia coli, ATCC25922, ESBL −ve E. coli ATCC25922; read-out: MIC.
Assay [4] has as its system carbapenemase producing K. pneumoniae. Kind of assay: MIC by broth micro-dilution (CLSI), carbapenemase producing K. pneumoniae. The assay is classed as cell-based, Klebsiella pneumoniae.
[5] abbreviates: Klebsiella pneumoniae, ATCCBAA1705, KPC-2 K. pneumoniae ATCC BAA-1705, read-out: MIC.

What is called MIC is the smallest concentration in the dilution series that meets the test's criterion for growth inhibition.

In the case of `C[C@@H](NC(=O)Cn1cnnn1)[C@H]1C(=O)N2C(C(=O)O)=C(S[C@@H]3CN[C@H](C(=O)N4CCN(CCN)CC4)C3)[C@H](C)[C@H]12` [Example 364, (4R,5S,6R)-6-((R)-1-(2-(1H-tetrazol-1-yl)acetamido)ethyl)-3-((3S,5S)-5-(4-(2-aminoethyl)piperazine-1-carbonyl)pyrrolidin-3-ylthio)-4-methyl-7-oxo-1-azabicyclo[3.2.0]hept-2-ene-2-carboxylic acid], the MIC turned out to be 1 µg/mL (≈ 1.73 µM) in assay [1], 4 µg/mL (≈ 6.94 µM) in assay [2], 0.25 µg/mL (≈ 0.434 µM) in assay [3] and 2 µg/mL (≈ 3.47 µM) in assay [4] (setting [5]).

Take `C[C@@H](NC(=O)Cn1cnnn1)[C@H]1C(=O)N2C(C(=O)O)=C(S[C@@H]3CN[C@H](C(=O)N4CCC5(CCN5)CC4)C3)[C@H](C)[C@H]12` [Example 365, (4R,5S,6R)-3-((3S,5S)-5-(1,7-diazaspiro[3.5]nonane-7-carbonyl)pyrrolidin-3-ylthio)-6-((R)-1-(2-(1H-tetrazol-1-yl)acetamido)ethyl)-4-methyl-7-oxo-1-azabicyclo[3.2.0]hept-2-ene-2-carboxylic acid]: the MIC stood at 2 µg/mL (≈ 3.49 µM) in assay [1], 4 µg/mL (≈ 6.97 µM) in assay [2], 0.25 µg/mL (≈ 0.436 µM) in assay [3] and 2 µg/mL (≈ 3.49 µM) in assay [4] (setting [5]).

As for `C[C@@H](NC(=O)Cn1cnnn1)[C@H]1C(=O)N2C(C(=O)O)=C(S[C@@H]3CN[C@H](C(=O)N4CC5(CCNCC5)C4)C3)[C@H](C)[C@H]12` [Example 366], the MIC in assay [1] is 2 µg/mL (≈ 3.49 µM); in assay [2], 4 µg/mL (≈ 6.97 µM); in assay [3], 0.25 µg/mL (≈ 0.436 µM); in assay [4] (setting [5]), 2 µg/mL (≈ 3.49 µM).

Consider `C[C@@H](NC(=O)Cn1cnnn1)[C@H]1C(=O)N2C(C(=O)O)=C(S[C@@H]3CN[C@H](C(=O)N4CCN(C(=N)N)CC4)C3)[C@H](C)[C@H]12` [Example 367, (4R,5S,6R)-6-((R)-1-(2-(1H-tetrazol-1-yl)acetamido)ethyl)-3-((3S,5S)-5-(4-carbamimidoylpiperazine-1-carbonyl)pyrrolidin-3-ylthio)-4-methyl-7-oxo-1-azabicyclo[3.2.0]hept-2-ene-2-carboxylic acid], for which the MIC in assay [1] came to 1 µg/mL (≈ 1.74 µM); in assay [2] it was 2 µg/mL (≈ 3.47 µM); in assay [3], 0.25 µg/mL (≈ 0.434 µM); in assay [4] (setting [5]), 2 µg/mL (≈ 3.47 µM).

`C[C@@H](NC(=O)Cn1cnnn1)[C@H]1C(=O)N2C(C(=O)O)=C(S[C@@H]3CN[C@H](C(=O)N4CCC5(CC4)CNC5)C3)[C@H](C)[C@H]12` [Example 368, (4R,5S,6R)-6-((R)-1-(2-(1H-tetrazol-1-yl)acetamido)ethyl)-3-((3S,5S)-5-(2,7-diazaspiro[3.5]nonane-7-carbonyl)pyrrolidin-3-ylthio)-4-methyl-7-oxo-1-azabicyclo[3.2.0]hept-2-ene-2-carboxylic acid]: the MIC in assay [1] came to 1 µg/mL (≈ 1.74 µM); in assay [2] it was 2 µg/mL (≈ 3.49 µM); in assay [3] it was 0.25 µg/mL (≈ 0.436 µM); in assay [4] (setting [5]) it was 2 µg/mL (≈ 3.49 µM).

With `C[C@@H](NC(=O)CCn1cnnn1)[C@H]1C(=O)N2C(C(=O)O)=C(S[C@@H]3CN[C@H](C(=O)N4CC[C@@H](N)C4)C3)[C@H](C)[C@H]12` [Example 369, (4R,5S,6R)-6-((R)-1-(3-(1H-tetrazol-1-yl)propanamido)ethyl)-3-((3S,5S)-5-((R)-3-aminopyrrolidine-1-carbonyl)pyrrolidin-3-ylthio)-4-methy-7-oxo-1-azabicyclo[3.2.0]hept-2-ene-2-carboxylic acid], the MIC in assay [1] was found to be 16 µg/mL (≈ 29.2 µM); in assay [2], 2 µg/mL (≈ 3.65 µM); in assay [3] it was 0.25 µg/mL (≈ 0.457 µM); in assay [4] (setting [5]), 8 µg/mL (≈ 14.6 µM).

Take `C[C@@H](NC(=O)Cn1cnnn1)[C@H]1C(=O)N2C(C(=O)O)=C(S[C@@H]3CN[C@H](C(=O)N4CCC(Nc5ncccn5)CC4)C3)[C@H](C)[C@H]12` [Example 370, (4R,5S,6R)-6-((R)-1-(2-(1H-tetrazol-1-yl)acetamido)ethyl)-4-methyl-7-oxo-3-((3S,5S)-5-(4-(pyrimidin-2-ylamino)piperidine-1-carbonyl)pyrrolidin-3-ylthio)-1-azabicyclo[3.2.0]hept-2-ene-2-carboxylic acid]: the MIC in assay [1] is more than 128 µg/mL; in assay [2], 8 µg/mL (≈ 12.8 µM); in assay [3], 4 µg/mL (≈ 6.39 µM); in assay [4] (setting [5]) it was 64 µg/mL (≈ 102 µM).

Regarding `C[C@@H](NC(=O)Cn1cnnn1)[C@H]1C(=O)N2C(C(=O)O)=C(S[C@@H]3CN[C@H](C(=O)N4CCC(N)(CC#N)CC4)C3)[C@H](C)[C@H]12` [Example 371, (4R,5S,6R)-6-((R)-1-(2-(1H-tetrazol-1-yl)acetamido)ethyl)-3-((3S,5S)-5-(4-amino-4-(cyanomethyl)piperidine-1-carbonyl)pyrrolidin-3-ylthio)-4-methyl-7-oxo-1-azabicyclo[3.2.0]hept-2-ene-2-carboxylic acid], the MIC in assay [1] was found to be 64 µg/mL (≈ 109 µM); in assay [2], 16 µg/mL (≈ 27.3 µM); in assay [3], 1 µg/mL (≈ 1.7 µM); in assay [4] (setting [5]), 4 µg/mL (≈ 6.82 µM).

With `C[C@@H](NC(=O)Cn1nnnc1C1CC1)[C@H]1C(=O)N2C(C(=O)O)=C(S[C@@H]3CN[C@H](C(=O)N4CC[C@@H](N)C4)C3)[C@H](C)[C@H]12` [Example 372, (4R,5S,6R)-3-((3S,5S)-5-((R)-3-aminopyrrolidine-1-carbonyl)pyrrolidin-3-ylthio)-6-((R)-1-(2-(5-cyclopropyl-1H-tetrazol-1-yl)acetamido)ethyl)-4-methyl-7-oxo-1-azabicyclo[3.2.0]hept-2-ene-2-carboxylic acid], the MIC in assay [1] is 64 µg/mL (≈ 112 µM); in assay [2] it was 4 µg/mL (≈ 6.97 µM); in assay [3] it was 0.5 µg/mL (≈ 0.872 µM); in assay [4] (setting [5]), 8 µg/mL (≈ 13.9 µM).

As to `C[C@@H](NC(=O)c1ccccc1-n1cnnn1)[C@H]1C(=O)N2C(C(=O)O)=C(S[C@@H]3CN[C@H](C(=O)N(C)C)C3)[C@H](C)[C@H]12` [Example 373], the MIC is more than 128 µg/mL in assay [1], 4 µg/mL (≈ 7.21 µM) in assay [2], 32 µg/mL (≈ 57.7 µM) in assay [3] and more than 128 µg/mL in assay [4] (setting [5]).

In the case of `C[C@@H](NC(=O)c1ccccc1-n1cnnn1)[C@H]1C(=O)N2C(C(=O)O)=C(S[C@@H]3CN[C@H](C(=O)N4CC[C@@H](N)C4)C3)[C@H](C)[C@H]12` [Example 374, (4R,5S,6R)-6-((R)-1-(2-(1H-tetrazol-1-yl)benzamido)ethyl)-3-((3S,5S)-5-((R)-3-aminopyrrolidine-1-carbonyl)pyrrolidin-3-ylthio)-4-methyl-7-oxo-1-azabicyclo[3.2.0]hept-2-ene-2-carboxylic acid], the MIC in assay [1] is more than 128 µg/mL; in assay [2] it was 8 µg/mL (≈ 13.4 µM); in assay [3], 32 µg/mL (≈ 53.7 µM); in assay [4] (setting [5]) it was more than 128 µg/mL.

In the case of `C[C@@H](NC(=O)Cn1cnnn1)[C@H]1C(=O)N2C(C(=O)O)=C(S[C@@H]3CN[C@H](C(=O)N4CC[N+](C)(CCN)CC4)C3)[C@H](C)[C@H]12.[I-]` [Example 375, 4-((2S,4S)-4-((4R,5S,6R)-6-((R)-1-(2-(1H-tetrazol-1-yl)acetamido)ethyl)-2-carboxy-4-methyl-7-oxo-1-azabicyclo[3.2.0]hept-2-en-3-ylthio)pyrrolidine-2-carbonyl)-1-(2-aminoethyl)-1-methylpiperazin-1-ium iodide], the MIC amounted to 4 µg/mL in assay [1], 16 µg/mL in assay [2], 2 µg/mL in assay [3] and 8 µg/mL in assay [4] (setting [5]).

As for `C[C@@H](NC(=O)Cn1cnnn1)[C@H]1C(=O)N2C(C(=O)O)=C(SC3CN(S(N)(=O)=O)C3)[C@H](C)[C@H]12` [Example 376, (4R,5S,6R)-6-((R)-1-(2-(1H-tetrazol-1-yl)acetamido)ethyl)-4-methyl-7-oxo-3-(1-sulfamoylazetidin-3-ylthio)-1-azabicyclo[3.2.0]hept-2-ene-2-carboxylic acid], the MIC in assay [1] is more than 128 µg/mL; in assay [2], 8 µg/mL (≈ 16.4 µM); in assay [3] it was 0.25 µg/mL (≈ 0.514 µM); in assay [4] (setting [5]), 16 µg/mL (≈ 32.9 µM).

For `C[C@@H](NC(=O)Cn1cnnn1)[C@H]1C(=O)N2C(C(=O)O)=C(S[C@@H]3CN[C@H](C(=O)N4C5CCC4CC4(CCNC4)C5)C3)[C@H](C)[C@H]12` (stereo partly drawn) [Example 377, (4R,5S,6R)-6-((R)-1-(2-(1H-tetrazol-1-yl)acetamido)ethyl)-3-((3S,5S)-5-(8-azaspiro[bicyclo[3.2.1]octane-3,3′-pyrrolidine]-8-ylcarbonyl)pyrrolidin-3-ylthio)-4-methyl-7-oxo-1-azabicyclo[3.2.0]hept-2-ene-2-carboxylic acid], the MIC in assay [1] came out at 8 µg/mL (≈ 13 µM); in assay [2] it was 4 µg/mL (≈ 6.52 µM); in assay [3], 0.25 µg/mL (≈ 0.407 µM); in assay [4] (Klebsiella pneumoniae, ATCCBAA1705) it was 2 µg/mL (≈ 3.26 µM).

As for `C[C@@H](NC(=O)Cn1nnnc1C1CC1)[C@H]1C(=O)N2C(C(=O)O)=C(S[C@@H]3CN[C@H](C(=O)N(C)C)C3)[C@H](C)[C@H]12` [Example 378], the MIC is 128 µg/mL (≈ 240 µM) in assay [1], 4 µg/mL (≈ 7.51 µM) in assay [2], 0.25 µg/mL (≈ 0.469 µM) in assay [3] and 2 µg/mL (≈ 3.75 µM) in assay [4] (setting [5]).

In the case of `C[C@@H](NS(=O)(=O)Cn1cnnn1)[C@H]1C(=O)N2C(C(=O)O)=C(S[C@@H]3CN[C@H](C(=O)N(C)C)C3)[C@H](C)[C@H]12` [Example 379, (4R,5S,6S)-6-((R)-1-((1H-tetrazol-1-yl)methylsulfonamido)ethyl)-3-((3S,5S)-5-(dimethylcarbamoyl)pyrrolidin-3-ylthio)-4-methyl-7-oxo-1-azabicyclo[3.2.0]hept-2-ene-2-carboxcylic acid], the MIC in assay [1] is more than 128 µg/mL; in assay [2] it was 16 µg/mL (≈ 30.3 µM); in assay [3] it was 0.5 µg/mL (≈ 0.946 µM); in assay [4] (KPC-2 K. pneumoniae ATCC BAA-1705), 16 µg/mL (≈ 30.3 µM).
